Test results published in PubChem BioAssay (NCI).
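Compound exposure: 48 hours, 5 concentrations, 96-well plates. TGI is the concentration that stops growth completely.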

Tests used:
Experiment in all cases: inhibition of tumour cell growth, NCI panel, 48 h
DU-145 prostate = system: DU-145 prostate
NCI-H226 lung = system: NCI-H226 lung
MALME-3M melanoma = system: MALME-3M melanoma
T-47D breast = system: T-47D breast
SF-539 CNS = system: SF-539 CNS
HCT-15 colon = system: HCT-15 colon
HCT-116 colon = system: HCT-116 colon
786-0 renal = system: 786-0 renal
NCI-H460 lung = system: NCI-H460 lung
CCRF-CEM leukemia = system: CCRF-CEM leukemia
MOLT-4 leukemia = system: MOLT-4 leukemia
SR leukemia = system: SR leukemia
NCI-H522 lung = system: NCI-H522 lung
SK-MEL-2 melanoma = system: SK-MEL-2 melanoma
HL-60(TB) leukemia = system: HL-60(TB) leukemia
A549 NSCLC = system: A549 NSCLC
SK-MEL-5 melanoma = system: SK-MEL-5 melanoma
MDA-MB-435 = system: MDA-MB-435
ACHN renal = system: ACHN renal
SF-295 CNS = system: SF-295 CNS
BT-549 breast = system: BT-549 breast
NCI-H23 lung = system: NCI-H23 lung
HOP-92 NSCLC = system: HOP-92 NSCLC
RXF 393 renal = system: RXF 393 renal
U251 CNS = system: U251 CNS
UACC-62 melanoma = system: UACC-62 melanoma
RPMI-8226 leukemia = system: RPMI-8226 leukemia
UACC-257 melanoma = system: UACC-257 melanoma
SNB-75 CNS = system: SNB-75 CNS
A498 renal = system: A498 renal
HCC-2998 colon = system: HCC-2998 colon
KM12 colon = system: KM12 colon
UO-31 renal = system: UO-31 renal
SN12C renal = system: SN12C renal
OVCAR-4 ovarian = system: OVCAR-4 ovarian
NCI/ADR-RES ovarian = system: NCI/ADR-RES ovarian
MDA-N = system: MDA-N
PC-3 prostate = system: PC-3 prostate
M14 melanoma = system: M14 melanoma
IGROV1 ovarian = system: IGROV1 ovarian
OVCAR-5 ovarian = system: OVCAR-5 ovarian
K-562 leukemia = system: K-562 leukemia
SW-620 colon = system: SW-620 colon
MCF7 breast = system: MCF7 breast
HT29 colon = system: HT29 colon
CAKI-1 renal = system: CAKI-1 renal
MDA-MB-231 breast = system: MDA-MB-231 breast
TK-10 renal = system: TK-10 renal
SF-268 CNS = system: SF-268 CNS
SNB-19 CNS = system: SNB-19 CNS
COLO 205 colon = system: COLO 205 colon
SK-MEL-28 melanoma = system: SK-MEL-28 melanoma
OVCAR-8 ovarian = system: OVCAR-8 ovarian
SK-OV-3 ovarian = system: SK-OV-3 ovarian
HS 578T breast = system: HS 578T breast
LOX IMVI melanoma = system: LOX IMVI melanoma
OVCAR-3 ovarian = system: OVCAR-3 ovarian
HOP-62 NSCLC = system: HOP-62 NSCLC
EKVX NSCLC = system: EKVX NSCLC

Measured: TGI

N#Cc1ccc2oc3ccc(C#N)cc3c(=O)c2c1
34.5 µM: OVCAR-5 ovarian
58.6 µM: SNB-75 CNS
37.4 µM: NCI-H460 lung | SK-MEL-2 melanoma
40.1 µM: HT29 colon
17.6 µM: SK-MEL-5 melanoma
74 µM: CCRF-CEM leukemia
47.1 µM: SF-295 CNS
36.7 µM: SK-MEL-28 melanoma
43.6 µM: SF-539 CNS
51.1 µM: NCI-H23 lung
73.4 µM: TK-10 renal
50.8 µM: MALME-3M melanoma
62.4 µM: RPMI-8226 leukemia
31.7 µM: U251 CNS
46.9 µM: MOLT-4 leukemia
64.8 µM: SNB-19 CNS
38.3 µM: OVCAR-4 ovarian
77.5 µM: NCI-H226 lung
68 µM: 786-0 renal
94.8 µM: MCF7 breast
57 µM: A549 NSCLC
31.9 µM: MDA-N
42.8 µM: RXF 393 renal
53.7 µM: BT-549 breast
28.9 µM: A498 renal
69.1 µM: SF-268 CNS
55 µM: PC-3 prostate
38.5 µM: HL-60(TB) leukemia
41.6 µM: UACC-62 melanoma
not listed: SK-OV-3 ovarian | HS 578T breast | LOX IMVI melanoma | OVCAR-3 ovarian | HOP-62 NSCLC | EKVX NSCLC
> 100 µM: all other assays above

CCN1CCCCC(=N\O)/C(=N/O)CCCC1
not listed: T-47D breast | HCC-2998 colon | K-562 leukemia
> 100 µM: all other assays above

CCOC(=O)CCC(NC(=O)c1ccc(NCc2ccc3nc(-c4ccccc4)c(Cl)nc3c2)c2ccccc12)C(=O)OCC (configuration not stated)
27.9 µM: MOLT-4 leukemia
61.5 µM: UACC-257 melanoma
not listed: CCRF-CEM leukemia | SR leukemia | HL-60(TB) leukemia | RPMI-8226 leukemia | IGROV1 ovarian | HS 578T breast
> 100 µM: all other assays above
